Assays:
PI3Kδ = PI3Kδ (Homo sapiens (Human), UniProt O00329); assay: PI3Kδ enzyme activity inhibition IC50 evaluation assay; type: biochemical; details: luminescence, 25 μM ATP, 50 μM PIP2, 2 hrs room temperature
Outline: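 Enzyme was preincubated with compound dilutions at 1% DMSO final in 50 mM HEPES pH 7.5, 3 mM MgCl2, 1 mM EGTA, 100 mM NaCl, 0.03% CHAPS, 2 mM DTT. Activity was read by luminescence, and inhibition rate is the mean of two tests.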

PI3Kα = PI3Kα (Homo sapiens (Human), UniProt P42336); assay: PI3Kα enzyme activity inhibition IC50 evaluation assay; type: biochemical; details: ratio PI3Kα vs PI3Kδ
PI3Kα, sequence (P42336 whole entry): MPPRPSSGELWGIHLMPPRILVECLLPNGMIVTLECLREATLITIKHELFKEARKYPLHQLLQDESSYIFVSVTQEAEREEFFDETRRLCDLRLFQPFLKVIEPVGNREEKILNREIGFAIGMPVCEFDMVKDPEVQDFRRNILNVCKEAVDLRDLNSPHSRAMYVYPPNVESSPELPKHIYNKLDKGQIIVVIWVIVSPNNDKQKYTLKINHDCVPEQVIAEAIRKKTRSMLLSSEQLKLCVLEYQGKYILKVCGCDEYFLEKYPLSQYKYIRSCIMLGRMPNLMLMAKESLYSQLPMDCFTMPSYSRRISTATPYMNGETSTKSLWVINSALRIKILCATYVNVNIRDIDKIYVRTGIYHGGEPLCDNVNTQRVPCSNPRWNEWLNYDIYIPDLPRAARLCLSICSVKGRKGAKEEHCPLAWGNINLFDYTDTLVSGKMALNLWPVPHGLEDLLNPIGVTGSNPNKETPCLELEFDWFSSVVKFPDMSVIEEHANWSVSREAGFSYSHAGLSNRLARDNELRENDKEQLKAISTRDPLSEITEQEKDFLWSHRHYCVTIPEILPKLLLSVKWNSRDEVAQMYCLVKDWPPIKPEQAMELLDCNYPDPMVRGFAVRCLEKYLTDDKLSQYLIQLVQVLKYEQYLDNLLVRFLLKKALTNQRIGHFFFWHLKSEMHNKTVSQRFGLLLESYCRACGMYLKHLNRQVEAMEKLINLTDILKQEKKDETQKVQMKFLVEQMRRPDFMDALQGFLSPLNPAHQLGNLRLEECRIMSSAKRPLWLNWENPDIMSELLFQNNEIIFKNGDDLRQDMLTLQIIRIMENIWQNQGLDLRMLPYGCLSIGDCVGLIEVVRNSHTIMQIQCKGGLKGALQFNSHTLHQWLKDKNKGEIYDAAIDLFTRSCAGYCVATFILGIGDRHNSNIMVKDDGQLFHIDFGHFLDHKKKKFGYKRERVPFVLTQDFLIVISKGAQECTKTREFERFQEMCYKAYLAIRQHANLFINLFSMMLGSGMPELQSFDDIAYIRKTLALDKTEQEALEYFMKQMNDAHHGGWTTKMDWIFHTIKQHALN
PI3Kα, sequence (P27986 whole entry partner): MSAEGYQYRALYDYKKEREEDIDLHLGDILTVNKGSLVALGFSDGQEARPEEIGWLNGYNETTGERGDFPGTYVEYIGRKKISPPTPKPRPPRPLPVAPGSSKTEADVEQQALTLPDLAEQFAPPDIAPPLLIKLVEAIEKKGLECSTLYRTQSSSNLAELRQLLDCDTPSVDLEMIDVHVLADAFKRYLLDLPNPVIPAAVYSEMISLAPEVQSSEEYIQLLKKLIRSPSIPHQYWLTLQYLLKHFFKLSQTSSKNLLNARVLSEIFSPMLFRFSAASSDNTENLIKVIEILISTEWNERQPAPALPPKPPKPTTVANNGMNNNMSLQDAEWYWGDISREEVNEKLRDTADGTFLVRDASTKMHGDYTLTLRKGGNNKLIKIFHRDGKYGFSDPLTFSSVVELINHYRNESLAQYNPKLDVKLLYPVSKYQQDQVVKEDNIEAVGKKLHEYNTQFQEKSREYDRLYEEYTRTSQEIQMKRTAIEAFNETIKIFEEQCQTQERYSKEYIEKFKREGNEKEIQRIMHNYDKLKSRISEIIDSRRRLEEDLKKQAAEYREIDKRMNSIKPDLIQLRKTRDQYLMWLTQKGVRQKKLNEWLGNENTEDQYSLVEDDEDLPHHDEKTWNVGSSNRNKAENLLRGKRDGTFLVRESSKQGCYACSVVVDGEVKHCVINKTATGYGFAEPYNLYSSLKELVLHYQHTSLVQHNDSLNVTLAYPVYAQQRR
Outline: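 Enzymes were preincubated with compound (1% DMSO final) in HEPES pH 7.5 buffer with MgCl2, EGTA, NaCl, CHAPS and 2 mM DTT. Reaction started with 50 μM PIP2 and 25 μM ATP, 1 h at room temperature. Luminescence was read, with ADP-Glo detection reagent added for β and γ; inhibition is the mean of two tests.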

PI3Kβ = PI3Kβ (Homo sapiens (Human), UniProt P42338); assay: PI3Kβ enzyme activity inhibition IC50 evaluation assay; type: biochemical; details: ratio PI3Kβ vs PI3Kδ
PI3Kβ, sequence (P42338 whole entry): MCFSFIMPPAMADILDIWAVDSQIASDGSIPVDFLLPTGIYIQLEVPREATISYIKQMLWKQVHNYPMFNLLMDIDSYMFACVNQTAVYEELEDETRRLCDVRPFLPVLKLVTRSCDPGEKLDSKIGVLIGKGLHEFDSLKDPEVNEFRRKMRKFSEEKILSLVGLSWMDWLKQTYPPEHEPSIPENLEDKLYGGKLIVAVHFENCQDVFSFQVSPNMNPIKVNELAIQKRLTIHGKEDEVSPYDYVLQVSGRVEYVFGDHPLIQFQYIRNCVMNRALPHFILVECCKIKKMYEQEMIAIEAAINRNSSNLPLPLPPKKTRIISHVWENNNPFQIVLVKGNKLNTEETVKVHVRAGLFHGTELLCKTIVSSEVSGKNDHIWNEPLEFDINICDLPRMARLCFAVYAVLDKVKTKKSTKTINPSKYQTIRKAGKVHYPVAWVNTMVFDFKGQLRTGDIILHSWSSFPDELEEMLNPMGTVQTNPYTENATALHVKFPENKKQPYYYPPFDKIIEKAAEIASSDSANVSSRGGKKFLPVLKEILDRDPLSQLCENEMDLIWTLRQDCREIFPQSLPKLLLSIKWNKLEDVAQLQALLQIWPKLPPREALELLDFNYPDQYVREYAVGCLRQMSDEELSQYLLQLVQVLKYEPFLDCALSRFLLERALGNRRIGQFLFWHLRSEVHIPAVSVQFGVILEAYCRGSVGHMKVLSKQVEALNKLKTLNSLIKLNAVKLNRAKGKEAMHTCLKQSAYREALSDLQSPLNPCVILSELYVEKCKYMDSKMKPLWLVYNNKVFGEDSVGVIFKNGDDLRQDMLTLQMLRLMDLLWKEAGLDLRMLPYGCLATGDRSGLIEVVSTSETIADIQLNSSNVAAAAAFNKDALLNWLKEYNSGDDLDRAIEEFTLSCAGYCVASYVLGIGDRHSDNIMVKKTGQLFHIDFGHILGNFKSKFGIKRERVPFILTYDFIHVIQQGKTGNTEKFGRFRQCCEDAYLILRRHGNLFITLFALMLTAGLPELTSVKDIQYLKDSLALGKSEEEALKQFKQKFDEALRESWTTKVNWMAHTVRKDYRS
PI3Kβ, sequence (P27986 whole entry partner): as the sequence (P27986 whole entry partner) above
Experimental: (§1) PI3Kα, PI3Kδ, PI3Kβ and PI3Kγ Enzyme Activity Inhibition IC50 Evaluation Assay
(§2) • 1. Buffer preparation: 50 mM HEPES, pH 7.5, 3 mM MgCl2, 1 mM EGTA, 100 mM NaCl, 0.03% CHAPS. • 2. Compound was formulated in 100% DMSO in a concentration gradient, and added to a 384-well plate to a final DMSO concentration of 1%. • 3. PI3Kα, PI3Kδ, PI3Kβ and PI3Kγ enzymes were diluted to an optimum concentration with the following buffer: 50 mM HEPES, pH 7.5, 3 mM MgCl2, 1 mM EGTA, 100 mM NaCl, 0.03% CHAPS, 2 mM DTT, and transferred to a 384-well plate and incubated with the compound for a certain time. • 4. Substrate was diluted to an optimum concentration with the following buffer: 50 mM HEPES, pH 7.5, 3 mM MgCl2, 1 mM EGTA, 100 mM NaCl, 0.03% CHAPS, 2 mM DTT, 50 μM PIP2, 25 μM ATP; then added to a 384-well plate to initiate the reaction, and for PI3Kα, PI3Kβ and PI3Kγ at room temperature reacted for 1 hr, for PI3Kδ at room temperature reacted for 2 hrs. For PI3Kβ and PI3Kγ, it was still necessary to further add 10 μL ADP-Glo Detection Reagent, and then equilibrated at room temperature for 30 minutes. • 5. Read Luminescense with FlexStation, and calculate the inhibition rate as the average of two tests.

PI3Kγ = PI3Kγ (Homo sapiens (Human), UniProt P48736); assay: PI3Kγ enzyme activity inhibition IC50 evaluation assay; type: biochemical; details: ratio PI3Kγ vs PI3Kδ
PI3Kγ, sequence (P48736 whole entry): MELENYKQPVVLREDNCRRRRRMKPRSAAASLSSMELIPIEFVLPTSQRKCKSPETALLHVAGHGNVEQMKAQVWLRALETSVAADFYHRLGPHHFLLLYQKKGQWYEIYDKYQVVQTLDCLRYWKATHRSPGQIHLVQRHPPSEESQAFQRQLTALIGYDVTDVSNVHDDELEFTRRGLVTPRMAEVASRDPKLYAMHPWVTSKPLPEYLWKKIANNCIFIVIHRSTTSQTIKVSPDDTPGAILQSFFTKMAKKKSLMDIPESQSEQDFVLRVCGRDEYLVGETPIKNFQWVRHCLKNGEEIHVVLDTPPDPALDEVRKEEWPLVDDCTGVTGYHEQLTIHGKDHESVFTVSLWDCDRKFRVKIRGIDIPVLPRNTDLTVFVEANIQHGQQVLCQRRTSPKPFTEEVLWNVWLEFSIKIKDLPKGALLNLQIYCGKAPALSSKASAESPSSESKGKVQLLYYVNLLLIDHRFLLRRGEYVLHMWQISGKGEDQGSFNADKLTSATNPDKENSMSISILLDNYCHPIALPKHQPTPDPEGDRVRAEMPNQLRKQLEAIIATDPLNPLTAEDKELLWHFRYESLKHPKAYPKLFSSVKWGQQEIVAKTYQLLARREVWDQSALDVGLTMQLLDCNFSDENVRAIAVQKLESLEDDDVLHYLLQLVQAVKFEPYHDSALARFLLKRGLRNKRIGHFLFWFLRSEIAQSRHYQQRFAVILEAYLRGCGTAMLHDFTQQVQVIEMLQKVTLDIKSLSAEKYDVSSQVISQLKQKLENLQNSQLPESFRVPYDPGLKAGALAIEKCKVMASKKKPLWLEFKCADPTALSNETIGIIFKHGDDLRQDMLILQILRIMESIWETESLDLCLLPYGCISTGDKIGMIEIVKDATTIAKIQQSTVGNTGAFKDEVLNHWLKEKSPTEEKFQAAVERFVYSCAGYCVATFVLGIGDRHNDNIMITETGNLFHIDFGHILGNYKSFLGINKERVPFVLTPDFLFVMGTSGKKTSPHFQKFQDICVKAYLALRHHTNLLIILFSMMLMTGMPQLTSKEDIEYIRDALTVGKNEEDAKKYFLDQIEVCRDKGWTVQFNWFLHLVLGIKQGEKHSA
Experimental: as §1, §2

Raji cells = assay: Inhibition of TNF-α generation of human Raji cell induced by human IgM; type: cell-based; details: 10 μg/ml IgM stimulation, 24 hrs, ELISA
Experimental: Screening Test for a Drug on Inhibiting TNF-α Generation of Human Raji Cell Induced by Human IgM
• 1. Raji cell lines (source of human Burkitt's lymphoma) were employed. • 2. 1×10^5/well Raji cells were plated onto a 96-well cell culture plate. • 3. Compounds to be screened were diluted to the corresponding test concentrations and added into the cell culture system 30 minutes before IgM stimulation. • 4. 10 μg/ml IgM monoclonal antibody was added into the cell culture system to stimulate the cells generating TNF-α. • 5. 24 hrs later, the amount of TNF-α generated by the cell system was measured by ELISA method. • 6.

PI3Kδ, sequence (O00329 whole entry): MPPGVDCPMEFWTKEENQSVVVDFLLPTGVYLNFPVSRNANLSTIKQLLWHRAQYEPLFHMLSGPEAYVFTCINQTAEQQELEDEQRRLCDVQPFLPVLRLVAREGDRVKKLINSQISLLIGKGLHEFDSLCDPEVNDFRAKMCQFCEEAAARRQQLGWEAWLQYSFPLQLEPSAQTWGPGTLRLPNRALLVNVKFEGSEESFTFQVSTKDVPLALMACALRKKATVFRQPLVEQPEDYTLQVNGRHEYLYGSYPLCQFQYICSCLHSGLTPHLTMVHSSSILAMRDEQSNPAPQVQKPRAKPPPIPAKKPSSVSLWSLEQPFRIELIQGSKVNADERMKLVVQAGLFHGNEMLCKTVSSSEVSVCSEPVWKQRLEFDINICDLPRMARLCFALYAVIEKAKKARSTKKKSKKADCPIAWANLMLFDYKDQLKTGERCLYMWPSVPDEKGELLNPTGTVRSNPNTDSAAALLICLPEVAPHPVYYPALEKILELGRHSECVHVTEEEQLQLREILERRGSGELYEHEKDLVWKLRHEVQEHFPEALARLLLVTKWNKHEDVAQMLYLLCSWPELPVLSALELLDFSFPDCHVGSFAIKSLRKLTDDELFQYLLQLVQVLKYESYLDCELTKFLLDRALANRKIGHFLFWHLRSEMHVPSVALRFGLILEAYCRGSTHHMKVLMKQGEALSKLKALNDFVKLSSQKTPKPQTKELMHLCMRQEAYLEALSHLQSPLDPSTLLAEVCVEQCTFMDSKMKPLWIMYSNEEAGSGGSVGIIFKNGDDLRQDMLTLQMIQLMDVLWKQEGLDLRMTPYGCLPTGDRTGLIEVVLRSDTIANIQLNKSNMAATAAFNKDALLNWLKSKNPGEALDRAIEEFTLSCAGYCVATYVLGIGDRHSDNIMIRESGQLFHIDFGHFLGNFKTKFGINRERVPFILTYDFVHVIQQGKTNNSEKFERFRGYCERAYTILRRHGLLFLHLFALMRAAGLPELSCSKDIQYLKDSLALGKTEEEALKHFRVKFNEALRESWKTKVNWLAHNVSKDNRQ
PI3Kδ, sequence (P27986 whole entry partner): as the sequence (P27986 whole entry partner) above

| IC50 (PI3Kδ) [nM] | α/δ selectivity (PI3Kα) | β/δ selectivity (PI3Kβ) | γ/δ selectivity (PI3Kγ) | IC50 (Raji cells) [nM] | SMILES |
| --- | --- | --- | --- | --- | --- |
| 11.9 | 257 | 24 | >840 | 6.7 | COc1ncc(-c2nc(N3CCOCC3)nc3c(CN4CCC(OC)CC4)c(C)sc23)cc1NS(C)(=O)=O [Compound 83] |
| 8.6 | 401 | 69 | >1162 | 39.1 | COc1ncc(-c2nc(N3CCOCC3)nc3c(CN4CCC(C(C)(C)F)CC4)c(C)sc23)cc1NS(C)(=O)=O [Compound 85] |
| 12.5 | 204 | 45 | 498 | 41.6 | COc1ncc(-c2nc(N3CCOCC3)nc3c(CN4CCN(CC(F)(F)F)CC4)c(C)sc23)cc1NS(C)(=O)=O [Compound 87] |
| 5.8 | 548 | 73 | 1202 | 6.1 | COc1ncc(-c2nc(N3CCOCC3)nc3c(CN4CCC(C(C)C)CC4)c(C)sc23)cc1NS(C)(=O)=O [Compound 88] |
| 6.5 | 157 | 167 | 532 | 1.1 | COc1ncc(-c2nc(N3CCOCC3)nc3c(CN4CCC(N(C)C(C)C)CC4)c(C)sc23)cc1NS(C)(=O)=O [Compound 95] |
| 12 | 390 | 29 | 482 | 32.6 | COc1ncc(-c2nc(N3CCOCC3)nc3c(CN4CCC(C)CC4)c(C)sc23)cc1NS(C)(=O)=O [Compound 101] |
| 4.1 | 203 | 275 | 1112 | 3.3 | CCN(CC)C1CCN(Cc2c(C)sc3c(-c4cnc(OC)c(NS(C)(=O)=O)c4)nc(N4CCOCC4)nc23)CC1 [Compound 110] |
| 7.6 | 108 | 126 | 611 | 1.1 | COc1ncc(-c2nc(N3CCOCC3)nc3c(CN4CCC(N5CCCC5)CC4)c(C)sc23)cc1NS(C)(=O)=O [Compound 112] |
| 4.6 | 225 | 140 | 567 | 3.3 | COc1ncc(-c2nc(N3CCOCC3)nc3c(CN4CCC(N5CCCCC5)CC4)c(C)sc23)cc1NS(C)(=O)=O [Compound 147] |
| 4.7 | 280 | 110 | 587 | 7 | COc1ncc(-c2nc(N3CCOCC3)nc3c(CN4CCC(N5CCC5)CC4)c(C)sc23)cc1NS(C)(=O)=O [Compound 148] |
| 9.3 | 39 | 15 | 221 | 8.6 | COc1ncc(-c2nc(N3CCOCC3)nc3c(CN4CCC(N5CCCCC5=O)CC4)c(C)sc23)cc1NS(C)(=O)=O [Compound 150] |
| 11 | 42 | 418 | >909 | 0.6 | COc1ncc(-c2nc(N3CCOCC3)nc3c(OC4CCC(N5CCCCC5)CC4)c(C)sc23)cc1NS(C)(=O)=O (stereo not drawn) [Compound 153] |
